Here are results for 16 molecules from patent publication US20240067668A1, “HETEROARYL DERIVATIVE COMPOUND AND USE THEREOF” (VORONOI INC., priority 2020, published 2024).

The target in one assay is EGFR Del19/T790M/C797S (Homo sapiens, UniProt P00533, C797S/T790M, form not given). Description: Enzyme IC50, EGFR Del19/T790M/C797S. Type of assay: biochemical.
The subject of assay [1] is BaF3-EGFR (Del19/T790M/C797S) cells. The assay is described as follows: Inhibitory activity on Ba/F3 cell proliferation (CellTiter-Glo, 72 hours). Type of assay: cell-based. To be noted: Ba/F3 cells expressing EGFR Del19/T790M/C797S. Summed up: (§1)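 Ba/F3 cells expressing wild-type EGFR or EGFR Del19/T790M/C797S, 3×10^3 per well, exposed 72 h at 37 °C to compound at 12 threefold dilutions, 0.00005-10 μM final. Viability by CellTiter-Glo 2.0; GI50 derived from growth relative to DMSO-treated cells.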

In a further assay the test system is BaF3-EGFR (WT) cells. Described as above. The format is cell-based. To be noted: Ba/F3 cells expressing EGFR WT. The method in brief: as §1

Where only a bound is given, the exact number is not on record here.

Chain of EGFR Del19/T790M/C797S (P00533 25-1210 T790M/C797S, form open): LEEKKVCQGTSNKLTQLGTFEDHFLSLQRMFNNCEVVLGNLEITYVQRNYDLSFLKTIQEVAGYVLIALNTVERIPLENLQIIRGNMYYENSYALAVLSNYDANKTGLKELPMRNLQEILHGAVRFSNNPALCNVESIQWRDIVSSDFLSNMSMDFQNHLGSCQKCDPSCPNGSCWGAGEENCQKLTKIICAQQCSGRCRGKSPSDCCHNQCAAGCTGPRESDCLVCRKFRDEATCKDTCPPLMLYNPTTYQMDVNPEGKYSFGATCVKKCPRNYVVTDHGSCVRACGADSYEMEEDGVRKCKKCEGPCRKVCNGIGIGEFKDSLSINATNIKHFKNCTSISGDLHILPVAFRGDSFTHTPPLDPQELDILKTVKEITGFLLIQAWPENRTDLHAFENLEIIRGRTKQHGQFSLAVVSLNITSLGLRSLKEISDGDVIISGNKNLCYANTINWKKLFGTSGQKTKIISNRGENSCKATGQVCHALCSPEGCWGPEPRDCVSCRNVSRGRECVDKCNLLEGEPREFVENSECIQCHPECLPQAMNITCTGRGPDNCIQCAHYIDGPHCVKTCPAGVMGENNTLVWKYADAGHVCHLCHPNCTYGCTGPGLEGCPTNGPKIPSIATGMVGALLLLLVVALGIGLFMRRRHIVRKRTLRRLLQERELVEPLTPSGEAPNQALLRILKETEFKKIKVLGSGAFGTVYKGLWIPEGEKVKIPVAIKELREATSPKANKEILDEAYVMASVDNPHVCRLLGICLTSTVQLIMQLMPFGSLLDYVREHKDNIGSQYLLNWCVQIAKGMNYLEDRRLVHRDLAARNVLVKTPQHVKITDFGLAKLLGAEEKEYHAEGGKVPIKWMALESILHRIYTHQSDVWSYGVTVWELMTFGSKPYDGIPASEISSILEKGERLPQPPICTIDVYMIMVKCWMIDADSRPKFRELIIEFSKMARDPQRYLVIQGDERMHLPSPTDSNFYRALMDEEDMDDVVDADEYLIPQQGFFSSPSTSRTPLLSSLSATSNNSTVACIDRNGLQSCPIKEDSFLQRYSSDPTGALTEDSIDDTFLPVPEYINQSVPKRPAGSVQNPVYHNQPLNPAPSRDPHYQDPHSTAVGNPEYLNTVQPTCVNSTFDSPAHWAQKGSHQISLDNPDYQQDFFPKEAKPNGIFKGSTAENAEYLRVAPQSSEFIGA

As to `COc1cc(N2CCC(N3CCN(C4CC4)CC3)CC2)c(C)cc1Nc1nc(Nc2ccc3nccnc3c2P(C)(C)=O)c2cc[nH]c2n1` [Example 60, (6-((2-((4-(4-(4-cyclopropyl-piperazin-1-yl)piperidin-1-yl)-2-methoxy-5-methylphenyl)amino)-7H-pyrrolo[2,3-d]pyrimidin-4-yl)amino)quinoxalin-5-yl)dimethyl-phosphine oxide], the IC50 against EGFR Del19/T790M/C797S was at most 0.05 µM. Moreover, the figures for the GI50 (in assay [1]; in the assay on BaF3-EGFR (WT) cells) were at most 0.05 µM and above 0.1 µM, respectively.

In turn, `CN1CCN(c2cc(OCC(F)(F)F)c(Nc3nc(Nc4ccc5nccnc5c4P(C)(C)=O)c4cc[nH]c4n3)cc2-c2cnn(C)c2)CC1` [Example 1, dimethyl (6-((2-((5-(1-methyl-1H-pyrazol-4-yl)-4-(4-methylpiperazin-1-yl)-2-(2,2,2-trifluoroethoxy)phenyl)amino)-7H-pyrrolo[2,3-d]pyrimidin-4-yl)amino)quinoxalin-5-yl)phosphine oxide] showed an IC50 at EGFR Del19/T790M/C797S of at most 0.05 µM. Besides, the GI50 was 0.05 to 0.1 µM in assay [1] and above 0.1 µM in the assay with BaF3-EGFR (WT) cells.

Regarding `COc1ccc(C)cc1Nc1nc(Nc2ccc3nccnc3c2P(C)(C)=O)c2cc[nH]c2n1` [Example 68, (6-((2-((2-methoxy-5-methylphenyl)amino)-7H-pyrrolo[2,3-d]pyrimidin-4-yl)amino)quinoxalin-5-yl)dimethyl-phosphine oxide], the IC50 on EGFR Del19/T790M/C797S is at most 0.05 µM. In addition, the GI50 (in assay [1]; in the assay with BaF3-EGFR (WT) cells) was above 0.1 µM in each case.

With `COc1cc(N2CCN(C)CC2)c(-c2ccoc2)cc1Nc1nc(Nc2ccc3nccnc3c2P(C)(C)=O)c2cc[nH]c2n1` [Example 75, (6-((2-((5-(furan-3-yl)-2-methoxy-4-(4-methylpiperazin-1-yl)phenyl)amino)-7H-pyrrolo[2,3-d]pyrimidin-4-yl)amino)quinoxalin-5-yl)dimethyl-phosphine oxide], the IC50 against EGFR Del19/T790M/C797S is at most 0.05 µM. The GI50 (in assay [1]; with BaF3-EGFR (WT) cells) was above 0.1 µM throughout.

As for `COc1cc(N2CCN(C)CC2)c(-c2cnn(C)c2)cc1Nc1nc(Nc2cnc3ccccc3c2P(C)(C)=O)c2cc[nH]c2n1` [Example 89, (3-((2-((2-methoxy-5-(1-methyl-1H-pyrazol-4-yl)-4-(4-methylpiperazin-1-yl)phenyl)amino)-7H-pyrrolo[2,3-d]pyrimidin-4-yl)amino)quinolin-4-yl)dimethyl-phosphine oxide], on EGFR Del19/T790M/C797S, the IC50 was at most 0.05 µM. Also, the GI50 (in assay [1]; in the assay with BaF3-EGFR (WT) cells) was above 0.1 µM each time.

Turning to `COc1cc(N2CCN(C)CC2)c(-c2cnn(C3CC3)c2)cc1Nc1nc(Nc2ccc3nccnc3c2P(C)(C)=O)c2cc[nH]c2n1` [Example 115, (6-((2-((5-(1-cyclopropyl-1H-pyrazol-4-yl)-2-methoxy-4-(4-methylpiperazin-1-yl)phenyl)amino)-7H-pyrrolo[2,3-d]pyrimidin-4-yl)amino)quinoxalin-5-yl)dimethyl-phosphine oxide], on EGFR Del19/T790M/C797S, the IC50 is at most 0.05 µM. Also, the GI50 in assay [1] was 0.05 to 0.1 µM; in the assay on BaF3-EGFR (WT) cells it was above 0.1 µM.

Take `CCN1CCN(C2CCN(c3cc(OC)c(Nc4nc(Nc5ccc6nccnc6c5P(C)(C)=O)c5cc[nH]c5n4)cc3C)CC2)CC1` [Example 61, (6-((2-((4-(4-(4-ethylpiperazin-1-yl)piperidin-1-yl)-2-methoxy-5-methylphenyl)amino)-7H-pyrrolo[2,3-d]pyrimidin-4-yl)amino)quinoxalin-5-yl)dimethyl-phosphine oxide]: at EGFR Del19/T790M/C797S, the IC50 is at most 0.05 µM. Moreover, the GI50 in assay [1] is 0.05 to 0.1 µM; in the assay on BaF3-EGFR (WT) cells it was above 0.1 µM.

Consider `Cn1cc(-c2cc(Nc3nc(Nc4ccc5nccnc5c4P(C)(C)=O)c4cc[nH]c4n3)c(OCC(F)(F)F)cc2N2CCOCC2)cn1` [Example 2, dimethyl (6-((2-((5-(1-methyl-1H-pyrazol-4-yl)-4-morpholino-2-(2,2,2-trifluoroethoxy)phenyl)amino)-7H-pyrrolo[2,3-d]pyrimidin-4-yl)amino)quinoxalin-5-yl) phosphine oxide], for which the IC50 against EGFR Del19/T790M/C797S is at most 0.05 µM. Besides, the GI50 in assay [1] was at most 0.05 µM; in the assay with BaF3-EGFR (WT) cells, above 0.1 µM.

`COc1cc(F)c(-c2cnn(C)c2)cc1Nc1nc(Nc2ccc3nccnc3c2P(C)(C)=O)c2cc[nH]c2n1` [Example 31, (6-((2-((4-fluoro-2-methoxy-5-(1-methyl-1H-pyrazol-4-yl)phenyl)amino)-7H-pyrrolo[2,3-d]pyrimidin-4-yl)amino)quinoxalin-5-yl)dimethyl-phosphine oxide]: on EGFR Del19/T790M/C797S, the IC50 is at most 0.05 µM. For the same molecule, the GI50 (in assay [1]; in the assay on BaF3-EGFR (WT) cells) was above 0.1 µM each time.

`CP(C)(=O)c1c(Nc2nc(Nc3cc([N+](=O)[O-])c(N4CCC(N5CCN(C6CC6)CC5)CC4)c4c3OCCO4)nc3[nH]ccc23)ccc2nccnc12` [Example 134, (6-((2-((8-(4-(4-cyclopropyl-piperazin-1-yl)piperidin-1-yl)-7-nitro-2,3-dihydrobenzo [b][1,4]dioxin-5-yl)amino)-7H-pyrrolo[2,3-d]pyrimidin-4-yl)amino)quinoxalin-5-yl)dimethyl-phosphine oxide] registered an IC50 against EGFR Del19/T790M/C797S of at most 0.05 µM. Besides, the figures for the GI50 (in assay [1]; in the assay with BaF3-EGFR (WT) cells) were above 0.1 µM and 0.05 to 0.1 µM, respectively.

Regarding `COc1cc(N2CCN(C3CCCC3)CC2)c(-c2cnn(C)c2)cc1Nc1nc(Nc2ccc3nccnc3c2P(C)(C)=O)c2cc[nH]c2n1` [Example 22, (6-((2-((4-(4-cyclopentyl-piperazin-1-yl)-2-methoxy-5-(1-methyl-1H-pyrazol-4-yl)phenyl)amino)-7H-pyrrolo[2,3-d]pyrimidin-4-yl)amino)quinoxalin-5-yl) dimethyl-phosphine oxide], on EGFR Del19/T790M/C797S, the IC50 is at most 0.05 µM. For the same molecule, the GI50 is at most 0.05 µM in assay [1] and above 0.1 µM with BaF3-EGFR (WT) cells.

In turn, `COc1cc(OCCN(C)C)c(-c2cnn(C)c2)cc1Nc1nc(Nc2ccc3nccnc3c2P(C)(C)=O)c2cc[nH]c2n1` [Example 35, (6-((2-((4-(2-(dimethylamino)ethoxy)-2-methoxy-5-(1-methyl-1H-pyrazol-4-yl)phenyl)amino)-7H-pyrrolo[2,3-d]pyrimidin-4-yl)amino)quinoxalin-5-yl)dimethyl-phosphine oxide] displayed an IC50 against EGFR Del19/T790M/C797S of at most 0.05 µM. Moreover, the results for the GI50 (in assay [1]; in the assay with BaF3-EGFR (WT) cells) were at most 0.05 µM and above 0.1 µM, respectively.

`COc1cc(N2CCN(C)CC2)c(C#N)cc1Nc1nc(Nc2ccc3nccnc3c2P(C)(C)=O)c2cc[nH]c2n1` [Example 81, 5-((4-((5-(dimethyl-phosphoryl)quinoxalin-6-yl)amino)-7H-pyrrolo[2,3-d]pyrimidin-2-yl)amino)-4-methoxy-2-(4-methylpiperazin-1-yl)benzonitrile] returned an IC50 at EGFR Del19/T790M/C797S of at most 0.05 µM. Besides, the GI50 (in assay [1]; in the assay on BaF3-EGFR (WT) cells) was above 0.1 µM in each case.

For the molecule `COc1cc(N2CCC(N3CCN(C)CC3)CC2)c(C)cc1Nc1nc(Nc2ccc3nccnc3c2P(C)(C)=O)c2nc[nH]c2n1` [Example 104, (6-((2-((2-methoxy-5-methyl-4-(4-(4-methylpiperazin-1-yl)piperidin-1-yl)phenyl)amino)-9H-purin-6-yl)amino)quinoxalin-5-yl)dimethyl-phosphine oxide], the IC50 on EGFR Del19/T790M/C797S is at most 0.05 µM. Further, the GI50 (in assay [1]; in the assay on BaF3-EGFR (WT) cells) was above 0.1 µM throughout.

`COc1cc(N2CCC(N3CCN(C(C)C)CC3)CC2)c(C)cc1Nc1nc(Nc2ccc3nccnc3c2P(C)(C)=O)c2cc[nH]c2n1` [Example 62, (6-((2-((4-(4-(4-isopropyl-piperazin-1-yl)piperidin-1-yl)-2-methoxy-5-methylphenyl)amino)-7H-pyrrolo[2,3-d]pyrimidin-4-yl)amino)quinoxalin-5-yl)dimethyl-phosphine oxide]: on EGFR Del19/T790M/C797S, the IC50 was at most 0.05 µM. For the same molecule, the GI50 in assay [1] is 0.05 to 0.1 µM; with BaF3-EGFR (WT) cells it was above 0.1 µM.

As to `COc1cc(N2CCC(N3CCN(C)CC3)CC2)c(Cl)cc1Nc1nc(Nc2ccc3nccnc3c2P(C)(C)=O)c2cc[nH]c2n1` [Example 56, (6-((2-((5-chloro-2-methoxy-4-(4-(4-methylpiperazin-1-yl)piperidin-1-yl)phenyl)amino)-7H-pyrrolo[2,3-d]pyrimidin-4-yl)amino)quinoxalin-5-yl)dimethyl-phosphine oxide], the IC50 against EGFR Del19/T790M/C797S was at most 0.05 µM. For the same molecule, the values for the GI50 (in assay [1]; in the assay with BaF3-EGFR (WT) cells) were at most 0.05 µM and above 0.1 µM, respectively.
